Target: T1, aromatase (Homo sapiens, UniProt P11511)
T1 construct: host or cells: human skin fibroblasts (HDF1616)
T1 sequence (P11511 1-503): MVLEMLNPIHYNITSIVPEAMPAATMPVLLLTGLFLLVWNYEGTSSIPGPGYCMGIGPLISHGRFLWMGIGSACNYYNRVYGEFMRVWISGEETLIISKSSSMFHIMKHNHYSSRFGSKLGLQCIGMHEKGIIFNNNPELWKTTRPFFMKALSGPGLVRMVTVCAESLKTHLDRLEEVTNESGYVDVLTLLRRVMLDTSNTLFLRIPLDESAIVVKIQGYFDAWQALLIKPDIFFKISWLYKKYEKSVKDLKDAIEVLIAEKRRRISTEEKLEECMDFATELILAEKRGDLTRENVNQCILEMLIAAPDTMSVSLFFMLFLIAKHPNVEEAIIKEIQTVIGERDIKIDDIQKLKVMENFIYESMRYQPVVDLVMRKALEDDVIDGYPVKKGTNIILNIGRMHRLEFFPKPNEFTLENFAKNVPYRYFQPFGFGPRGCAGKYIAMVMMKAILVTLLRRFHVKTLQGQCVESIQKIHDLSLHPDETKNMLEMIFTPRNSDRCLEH
Test: Aromatase activation effect in fibroblasts derived from human skin (3H2O release from 1β-3H-androst-4-ene-3,17-dione)
Type: cell-based
Settings: for Aromatase activity: fibroblasts (HDF1616) derived from human skin, amount added 4.65 × 10^−6 mol/L, control 6.85; for Aromatase activation effect (in words): fibroblasts derived from human skin, 4.65×10^−6 mol/L, compared with control (no addition)
Description: The aromatase activation effect of the compounds 1 and 2 prepared in Production Example 1 was examined with reference to Stampfer M J, Willett W C, Colditz G A, Rosner B, Speizer F E and Hennenkens C H, N. Engl. J. Med., 313, 1044-1049, 1985.
Fibroblasts (HDF1616: KURABO) derived from human skin were planted in a 24-well cell culture plate (FALCON) to culture until it became confluent. The medium was removed and 900 μL of a serum-free medium was added to the wells to culture for 24 hr. At this time, the compound 1 or 2 prepared using an aqueous 95% ethanol solution such that the final concentration was 4.65×10^−6 mol/L was added to the wells. Also, a sample in which an aqueous 95% ethanol solution was added and a sample (no addition) in which no material was added were prepared as controls.
1β-3H-androst-4-ene-3,17-dione (Perkin Elmer) which was the substrate of aromatase was added in the serum-free medium such that the concentration was 37 kBq/100 μL and added in an amount of 100 μL in each well to culture for 24 hr. 900 μL of the culture product was taken, in a 2 mL tube from one well and 1 mL of CHCl3 was added to the cultured product, which was then stirred vigorously. The cultured product was centrifuged at 15,000 rpm for 10 min to transfer the upper layer (water layer) to another tube. 200 μL of Charcoal/Dextran (which is one obtained by suspending 5 g of Charcoal, dextran coated (SIGMA) in 50 mL of H2O) was added to the upper layer, which was fairly mixed and then allowed to stand at ambient temperature for 30 min. The mixture was centrifuged at 15,000 rpm for 10 min and the supernatant was transferred to a new tube. 1 mL of […] was added to the supernatant, which was then vigorously stirred and centrifuged at 15,000 rpm for 10 min and the upper layer (water layer) was added to 5 mL of Ultima Gold (Perkin Elmer) to measure the radioactivity of ^3H by a liquid scintillation counter (Perkin Elmer Tricarb 2550). The same serum-free medium containing no cell was incubated for the same hours without adding a drug, followed by the same procedures to measure the radioactivity of ^3H and the radioactivity was subtracted from the above measured radioactivity.
1β-3H-androst-4-ene-3,17-dione releases ^3H2O by an aromatase reaction and is converted into estrogen having no radioactivity. In this experimental method, the radioactivity of released ^3H2O is detected, showing that the higher the radioactivity is, the higher the aromatase activity is.

Compound	Aromatase activity	Aromatase activation effect (in words)
CC1=CC[C@H](C)C(C)(C)[C@@H]1CC/C(C)=C/CC[C@@]1(C)[C@H](CCCO)/C(=C(/C)C=O)CC[C@]1(C)O [Compound 1]	21.68 fmol/day/well	activated aromatase existing in cells
C=C1CC[C@H](C)C(C)(C)[C@@H]1CC/C(C)=C/CC[C@@]1(C)[C@H](CCCO)/C(=C(/C)C=O)CC[C@]1(C)O [Compound 2]	22.34 fmol/day/well	activated aromatase existing in cells
